In patent US20210292807A1, “METHOD FOR TESTING ANTIMICROBIAL SUSCEPTIBILITY” (priority 2017, published 2021):
Converted amounts (≈) assume the structure as drawn. Like-named read-outs stand apart in the source and are kept apart here.

Tests used:
Staphylococcus aureus [1] = test: Broth microdilution (BMD) MIC of Staphylococcus aureus isolates; type: cell-based
From the text: The acoustic flow cytometry assisted method of the present invention was employed essentially as described in the previous working examples to determine susceptibility of Staphylococcus aureus to both cefoxitin and oxacillin. Susceptibility classification into S/NS and quantitative MIC values obtained using the acoustic flow cytometry assisted method were compared to results obtained using the conventional broth microdilution (BMD) method. Results are shown in Table 4 (Panels A and B) below and in FIGS. 9-12.

Staphylococcus aureus [2] = test: Acoustic flow cytometry-assisted susceptibility test (FAST) of Staphylococcus aureus isolates; type: cell-based; design: MIC dilution at which susceptibility-associated signature is observed by AFC: unit not given beside the values
Procedure: The material and methods utilized are briefly outlined herein below. The method used was similar to that outlined in the earlier examples albeit adjusted to allow for 3 hour incubation of Staphylococcus aureus to account for longer doubling times of Staphylococcus aureus relative to K. pneumoniae used in the previous examples.
Events were acquired by forward scatter and BL1 (515 nm-545 nm) using the Attune with voltages and thresholding set as follows: Forward Scatter Voltage: 3050; Forward Scatter Threshold: 3×1000 AND; Side Scatter Voltage: 2950; Side Scatter Threshold: IGNORE; BL1 Voltage: 1500; BL1 Threshold: 1×1000 AND.
Nine mL of MHB was aliquoted into twelve, 50 mL Falcon tubes. Each tube was labelled with the required final test concentration of antibiotic. […] Tubes were transferred to a 35° C. incubator to pre-warm.
One 1 mL of the overnight bacterial suspension was transferred into a 1.5 mL microcentrifuge tube and centrifuge at 7,800×g for about 5 minutes. The supernatant was discarded, and the pellet re-suspended in 1 mL of 0.1 μm filtered HBSS. This step was optionally repeat.
About 900 μL of HBSS was dispended into three 1.5 mL tubes—two clear tubes and one amber tube. About 100 μL of the bacterial suspension was inoculated into the first tube (clear) and serially dilute to reach 1:1000 by the third tube (amber). About 1 μl of SYTO 9 (5 μM final concentration) was added to the third tube. The dye was incubated, protected from light, for at least 5 minutes (individual sample types were optionally required with longer incubations) and then the Stained Control on the Attune acoustic flow cytometer instrument was read
The event density (events/μL) from your stained control aliquots was used to calculate the inoculum volume required to produce a 5.5×10^5 bacteria mL-1 in 10 mL of MHB. For example, (400 events/A)/(10 mL×550000)=7.3 μL, rounded up to the closest 10 μL.
The required volume of bacterial suspension was added from the overnight culture into each 50 ml tube with 9 ml of preheated MHB. Optionally incubate with shaking and protected from light, at 100 RPM at 35° C. for 60 minutes.
MHB (0.1 μm filtered) was used to dilute the antibiotics in this preparation. About one aliquot of antibiotic was removed from the −20° C. freezer and equilibrated to room temperature by ambient heat exchange, and diluted to reach a range of working stock concentrations that were are ten times the desired test concentrations.
Once the 60-minute incubation of bacterial suspension was complete, about 1 mL of 10× antibiotic stocks were added to tubes containing bacterial suspensions to reach final desired test concentrations (1 ml antibiotic and total volume 10 ml). The 50 mL tubes were returned to the incubator and incubated, by shaking at 100 RPM at 35° C., for a further 3 hours.
After 3 hours, about 1 mL suspension was harvested from each tube and transferred to a 1.5 mL clear microcentrifuge tube (marked with the corresponding antibiotic concentration), then centrifuge at 7,800×g for 5 minutes. The supernatant discarded and the pellet resuspended in 1 mL of 0.1 μm filtered HBSS. This wash step was optionally repeated.
Using the computer connected to the Attune, new samples were created ready for the collection of data. That the following parameters were set: Sensitivity: High Sensitivity; Flow Rate: 25 μL/minute; Acquisition Volume: 125 μL; Events Collected: No less than 20,000 from all gates, Time: 1 minute.
About 899 μL HBSS was dispensed into one 1.5 mL amber tube per sample. About 100 μL of suspension per tube was added to achieve a 1 in 10 dilution. About 1 μl of SYTO 9 was added to each tube and the tube vortexed for no more than 2 seconds (over vortexing can lead to bacterial clustering and/or attachment to tube walls).
Samples were placed on the SIP and acquired, in technical triplicate, as per the parameters outlined above. […]

Klebsiella isolates = test: Acoustic flow cytometry-assisted susceptibility test (FAST), MICFAST and S/NS, Klebsiella isolates; type: cell-based, Klebsiella pneumoniae, Klebsiella oxytoca; design: MICBMD / MICFAST data point (FIG. 8): unit not given here; settings: 10 of 14 K. pneumoniae isolates
Procedure: A 1 mL aliquot of bacterial suspension was centrifuged, washed and resuspended in 1 mL filtered Hank's Buffered Salt Solution (HBSS; comprising about 0.137 M NaCl, about 5.4 mM KCl, about 0.25 mM Na2HPO4, about 0.1 g Glucose, about 0.44 mM KH2PO4, 1.3 mM CaCl2), 1.0 mM MgSO4, about 1.3 mM CaCl2), 1.0 mM MgSO4, and about 4.2 mM NaHCO3) and diluted in series (e.g., in a 1:10 serial dilution) to a final 1:1000 dilution.
One μL (microliter) of SYTO 9 stain (e.g., ThermoFisher Scientific) working stock solution was added to the final dilution at a final concentration of 5 μM and incubated for 5 minutes before counting bacterial events by acoustic flow cytometer (AFC) (Attune, ThermoFisher, Eugene, Oreg., USA), which was used to prepare a standardised inoculum density for susceptibility testing.
An aliquot of bacterial suspension was added to 50 mL centrifuge tubes (Corning, N.Y.) containing 9 mL of pre-warmed (37° C.) filtered MHB to produce a final density of 5×10^5-1×10^6 bacteria per mL. This suspension was incubated at 37° C. with shaking at 100 RPM for 30 minutes to obtain an actively dividing culture. An aliquot of antibiotic working solution from the previously described dilution series (appropriate to the concentration tested) was then added to each tube before a further 30-minute incubation with shaking, during which time a microbroth dilution (MBD) plate was prepared for overnight incubation at 37° C. as previously described in Clinical and Laboratory Standards Institute (2015) Performance Standards for Antimicrobial Susceptibility Testing: Informational Supplement. CLSI document M100-S25. Clinical and Laboratory Standards Institute, 950, West Valley Road, Suite 2500, Wayne, Pa., 19087, USA.
One millilitre of bacterial suspension from each antibiotic concentration was harvested by centrifugation at 7800×g for 5 minutes, washed and diluted 1:10 in filtered HBSS in a light-impermeable microcentrifuge tube, then stained with SYTO 9 stain at a final concentration of 5 μM, and incubated for 5 min before AFC sampling. Hoechst 33342 dye (NucBlue, Thermo Fisher Scientific, Eugene, Oreg., USA) and a SYTO 9/propidium iodide (PI) combination (Thermo Fisher Scientific) were used in a series of replicate experiments.
The acoustic flow cytometer employed was Attune acoustic flow cytometer (Thermo Fisher Scientific), having installed therein a 488 nm blue laser with a 530/30 nm filter on the photomultiplier tube for measuring fluorescence of cells assayed. Alternatively, the Attune NxT acoustic flow cytometer (Thermo Fisher Scientific) can be employed. AFC was calibrated at the beginning of each acquisition session using fluorescently labelled size calibration beads, in accordance with the manufacturer's instructions (ThermoFisher Scientific). The AFC settings were as follows: Forward Scatter (FSC) voltage 3100, FSC threshold 4×1000 AND, blue laser 1 (BL1—530/30 nm) voltage 1900, BL1 threshold 1×1000 AND, high sensitivity, flow rate 25 μL/minute, and an acquisition volume of 125 μL. Acquisition was halted after either collection of 20,000 events across all gates, or after 3 minutes, with each sample acquired in technical triplicate.
Collected data was exported in the FCS 3.0 file format and analysed in Flow v10.0 (FlowJo LLC, Ashland, Oreg., USA) by a single user, blinded to the MIC results by BMD (MICBMD).
Subsequent to quantitative MICFAST determination, the acoustic flow cytometer data were re-analysed in silico to produce a limited sub-set for qualitative susceptibility determination. The six antibiotic dilutions (0 mg/L, 0.25 mg/L, 1 mg/L, 2 mg/L, 4 mg/L and 16 mg/L) most relevant to qualitative susceptibility assessment were used. In silico analysis was restricted to the first technical triplicate of each recorded sample. Gating strategies remained consistent, with the addition of a gate restricting analysis to only those events recorded in the first 60 seconds of acquisition.

K. pneumoniae = test: AFC susceptibility-associated signature for ceftriaxone and gentamicin (FIG. 19); type: cell-based, Klebsiella pneumoniae
From the text: FIG. 19 provides graphical and pictorial representations showing rapid determination of susceptibly of bacteria to antimicrobial using the using the AFC-assisted susceptibility testing method of the invention.
This example sets out to investigate utility of the AFC-assisted susceptibility testing method of the invention as a clinical test and tool which can inform use antimicrobial choice in the early hours of sepsis presentation, e.g., by applying the AFC-assisted susceptibility testing method directly to blood cultures.

[3] = S. aureus isolate ATCC 29213, MSSA
[4] = S. aureus isolate W0096111, MSSA
[5] = S. aureus isolate W0226111, MSSA
[6] = S. aureus isolate W0236111, MSSA
[7] = S. aureus isolate W0296111, MSSA
[8] = S. aureus isolate W0816111, MSSA
[9] = S. aureus isolate W0866111, MRSA
[10] = S. aureus isolate W6496111, MSSA
[11] = S. aureus isolate W9196111, MSSA
[12] = S. aureus isolate W9346111, MRSA
[13] = S. aureus isolate W . . . 6111, MRSA
[14] = S. aureus isolate WACC 98, MRSA

For `Cc1onc(-c2ccccc2)c1C(=O)N[C@@H]1C(=O)N2[C@@H]1SC(C)(C)[C@@H]2C(=O)O` [Oxacillin, oxacillin], the MIC (BMD) (Staphylococcus aureus [1]; [3]) was 0.25 µg/mL, the MIC (BMD) (Staphylococcus aureus [1]; [4]) was 0.25 µg/mL and the MIC (BMD) (Staphylococcus aureus [1]; [5]) was 0.25 µg/mL. For the same compound, the MIC (BMD) (Staphylococcus aureus [1]; [6]) was 0.25 µg/mL, the MIC (BMD) (Staphylococcus aureus [1]; [7]) was 0.25 µg/mL and the MIC (BMD) (Staphylococcus aureus [1]; [8]) was 0.25 µg/mL. It also gave an MIC (BMD) (Staphylococcus aureus [1]; [9]) of 16 µg/mL, an MIC (BMD) (Staphylococcus aureus [1]; [10]) of 1 µg/mL and an MIC (BMD) (Staphylococcus aureus [1]; [11]) of 0.25 µg/mL. The MIC (BMD) (Staphylococcus aureus [1]; [12]) was 32 µg/mL, the MIC (BMD) (Staphylococcus aureus [1]; [13]) was 8 µg/mL and the MIC (BMD) (Staphylococcus aureus [1]; [14]) was 256 µg/mL. For the same compound, the “MIC dilution at which susceptibility-associated signature is observed by AFC” value (Staphylococcus aureus [2]; S. aureus ATCC 29213) was 0.25, the “MIC dilution at which susceptibility-associated signature is observed by AFC” value (Staphylococcus aureus [2]; S. aureus WACC 98) was 256 and the MIC (FAST) (Staphylococcus aureus [2]; [3]) was ≤ 1 µg/mL. The MIC (FAST) (Staphylococcus aureus [2]; [4]) was ≤ 1 µg/mL, the MIC (FAST) (Staphylococcus aureus [2]; [5]) was ≤ 1 µg/mL and the MIC (FAST) (Staphylococcus aureus [2]; [6]) was ≤ 1 µg/mL. For the same compound, the MIC (FAST) (Staphylococcus aureus [2]; [7]) was ≤ 1 µg/mL, the MIC (FAST) (Staphylococcus aureus [2]; [8]) was ≤ 1 µg/mL and the MIC (FAST) (Staphylococcus aureus [2]; [9]) was 16 µg/mL (≈ 39.9 µM). For the same compound, the MIC (FAST) (Staphylococcus aureus [2]; [10]) was 1 µg/mL (≈ 2.49 µM), the MIC (FAST) (Staphylococcus aureus [2]; [11]) was ≤ 1 µg/mL and the MIC (FAST) (Staphylococcus aureus [2]; [12]) was 32 µg/mL (≈ 79.7 µM). The MIC (FAST) (Staphylococcus aureus [2]; [13]) was 16 µg/mL (≈ 39.9 µM), the MIC (FAST) (Staphylococcus aureus [2]; [14]) was 256 µg/mL (≈ 638 µM) and the “events remaining in Unexposed Cell Morphotype gate (FIG. 14B)” value (Staphylococcus aureus [2]; clinical methicillin resistant S. aureus WACC 98, at EUCAST breakpoint 8 mg/L) was “above the 10% threshold for MICFAST”. The “events remaining in Unexposed Cell Morphotype gate (FIG. 14A)” value (Staphylococcus aureus [2]; control methicillin susceptible S. aureus ATCC 25912, oxacillin concentration range) was “remains below the 10% MICFAST threshold”.
For `CO/N=C(\C(=O)N[C@@H]1C(=O)N2C(C(=O)O)=C(CSc3nc(=O)c(=O)[nH]n3C)CS[C@H]12)c1csc(N)n1` [ceftriaxone], the “MICBMD / MICFAST data point (FIG. 8)” value (Klebsiella isolates) was 256 and the MIC (K. pneumoniae; Klebsiella pneumoniae, K. pneumoniae susceptible type strain SSCC 43358, read-out: isolate's MIC (FIG. 19A)) was 0.25 µg/mL (≈ 0.451 µM).
In the case of gentamicin, the MIC (K. pneumoniae; K. pneumoniae isolate 244606) is reported as 1 µg/mL.
